In US9975930B2, “Lantibiotic derivatives and process for their preparation” (NAICONS S.r.l., priority 2012, dated 2018):

How the values were obtained:
Assay in all cases: MIC by broth microdilution
E. faecalis VanS = format: cell-based; settings: code 559, CAMHB broth
[1] = tested on: Staphylococcus aureus Met-S ATCC6538P; format: cell-based; settings: code 100; CAMHB broth; 20-24 hours at 35° C.
S. pyogenes = format: cell-based; settings: code 49; Todd Hewitt broth; 20-24 hours at 35° C.
E. faecium VanA = format: cell-based, Enterococcus faecium; settings: code 569; CAMHB broth; 20-24 hours at 35° C.
S. aureus ATCC19636 = format: cell-based, Staphylococcus aureus; settings: code 819, CAMHB broth
[2] = tested on: Enterococcus faecium VanS; format: cell-based; settings: code 568, CAMHB broth
[3] = tested on: Staphylococcus aureus Met-R; format: cell-based; settings: code 1400; CAMHB broth; 20-24 hours at 35° C.
E. faecalis VanA = format: cell-based; settings: code 560; CAMHB broth; 20-24 hours at 35° C.
Candida albicans = format: cell-based; settings: code 145; RPMI-1640; 48 hours
S. aureus ATCC 25923 = format: cell-based, Staphylococcus aureus; settings: CAMHB broth; 20-24 hours at 35° C.

CN[C@H](CC(C)C)C(=O)N[C@H]1C(=O)N[C@@H](CC(N)=O)C(=O)N[C@H]2C(=O)N[C@H]3C(=O)N[C@H](C(=O)N[C@H](C(=O)O)c4cc(O)cc(O)c4-c4cc3ccc4O)[C@H](O)c3ccc(c(Cl)c3)Oc3cc2cc(c3O[C@@H]2O[C@H](CO)[C@@H](O)[C@H](O)[C@H]2O[C@H]2C[C@](C)(N)[C@H](O)[C@H](C)O2)Oc2ccc(cc2Cl)[C@H]1O [VA, vancomycin]
Minimal inhibitory concentration (MIC) (E. faecalis VanS; +serum 30% (bovine serum)): 2 | Minimal inhibitory concentration (MIC) (E. faecalis VanS; 20-24 hours at 35° C.): 1 | Minimal inhibitory concentration (MIC) [1]: 0.25 | Minimal inhibitory concentration (MIC) (S. pyogenes): 0.25 | Minimal inhibitory concentration (MIC) (E. faecium VanA): >128 | Minimal inhibitory concentration (MIC) (S. aureus ATCC19636; +serum 30% (bovine serum)): 1 | Minimal inhibitory concentration (MIC) (S. aureus ATCC19636; 20-24 hours at 35° C.): 0.5 | Minimal inhibitory concentration (MIC) ([2]; +serum 30% (bovine serum)): 2 | Minimal inhibitory concentration (MIC) ([2]; 20-24 hours at 35° C.): 2 | Minimal inhibitory concentration (MIC) [3]: 0.5 | Minimal inhibitory concentration (MIC) (E. faecalis VanA): 2 | Minimal inhibitory concentration (MIC) (Candida albicans): >128 | Minimal inhibitory concentration (MIC) (S. aureus ATCC 25923): 1
